Legend:
[1] = system: late-stage ovarian cancer; experiment: Example 2: rectal dehydroequol with intravenous carboplatin in a patient with platin- and taxane-refractory late-stage ovarian cancer; type: in vivo, human; conditions: stated objective; dehydroequol 400 mg every 12 hours rectally for 7 days + carboplatin AUC 6 iv on Day 2, every 28 days, 6 courses
Text: A patient with late-stage ovarian cancer. Previously treated intravenously with multiple rounds of carboplatin and paclitaxel and now displaying multi-drug resistance by showing disease progression while undergoing combined therapy with carboplatin/paclitaxel. This patient meets the definition of platin- and taxane-refractory disease.
The patient is showing multiple tumours throughout the abdominal cavity and is suffering failing health although still considered sufficiently robust to withstand further cytotoxic chemotherapy were it considered likely to provide a benefit.
The patient is treated with 400 mg of dehydroequol every 12 hours for 7 consecutive days. The dehydroequol is administered rectally in a solid 2 gram suppository dosage form in a theobroma oil base.
Carboplatin is injected intravenously at a dosage equivalent to an AUC of 6 on Day 2 of the 7-day dehydroequol treatment regimen.
This regimen is repeated every 28 days for a total of 6 courses of treatment.

[2] = system: castrate-resistant metastatic prostate cancer; experiment: Example 3: docetaxel course, with or without rectal dehydroequol as adjuvant, in castrate-resistant metastatic prostate cancer; type: in vivo, human; conditions: stated objective; dehydroequol 400 mg once daily rectally for 7 days as adjuvant to docetaxel 175 mg/m2 iv every 21 days
Experimental: A patient with castrate-resistant metastatic prostate cancer with secondary cancers in several inguinal lymph nodes and multiple bones (thoracic vertebrae, femur, ribs, humerus). Having progressed on hormone-ablation therapy, the standard next step for this patient is to receive a course of treatment with docetaxel involving an intravenous injection of a dosage of […] over 3 hours every 21 days for 18 weeks.
Dehydroequol is administered as adjuvant therapy at a dosage of 400 mg once daily for 7 consecutive days commencing on the day prior to the administration of docetaxel and repeated for the duration of the course of docetaxel therapy. The dehydroequol is administered rectally in a solid 2 gram suppository dosage form in a theobroma oil base.

[3] = system: castrate-resistant metastatic prostate cancer; conditions: docetaxel alone, standard course; response = complete remission, partial remission or no disease progression; cited from earlier work

Row | SMILES | prolong the survival of the patient (additional) [1] [months] | response rate (objective) [2] | response rate (reported) [3] [%]
1 | Oc1ccc(C2=Cc3ccc(O)cc3OC2)cc1 [dehydroequol, 2H-1-Benzopyran-7-0,1,3-(4-hydroxyphenyl)] | 12 | 40-100% | –
2 | CC(=O)O[C@@]12CO[C@@H]1C[C@H](O)[C@@]1(C)C(=O)[C@H](O)C3=C(C)[C@@H](OC(=O)[C@H](O)[C@@H](NC(=O)OC(C)(C)C)c4ccccc4)C[C@@](O)([C@@H](OC(=O)c4ccccc4)[C@H]21)C3(C)C [docetaxel] | – | – | 30
